The results in this text go back to ChEMBL document CHEMBL4196089, “Design, synthesis, biological evaluation and in vivo testing of dual phosphodiesterase 5 (PDE5) and histone deacetylase 6 (HDAC6)-selective inhibitors for the treatment of Alzheimer's disease” (Eur J Med Chem, 2018).

SMILES strings stand for the structures. pIC50: −log10 of the molar value.

Data set [1] is described as follows: Effective permeability of the compound at 50 uM after 18 hrs by UV spectroscopy based PAMPA. The data set is classed as ADME. The note with it: read-out: Peff.
The target of data set [2] is CYP2C9 (Homo sapiens, UniProt P11712). The data set is described as follows: Inhibition of CYP2C9 in human liver microsomes at 10 uM after 10 mins in presence of NADPH by LC-MS/MS analysis relative to control. The data set is classed as ADME. (In general: Liver microsomes are vesicles of endoplasmic reticulum, rich in cytochrome P450 enzymes.)
Data set [3] addresses T1, Histone deacetylase 1 (Homo sapiens, UniProt Q13547). The data set is described as follows: Inhibition of full length human recombinant C-terminal FLAG/His-tagged HDAC1 expressed in baculovirus infected sf9 cells assessed residence time preincubated fopr 2 hrs followed by dilution and subsequent fluorogenic HDAC substrate 3 addition measured at 2 mins time interval by fluorescence based jump dilution assay.

A short description of data set [4]: cells. The note with it: Homo sapiens, SH-SY5Y, 2 h, read-out: FC.
Data set [5] in a line: cells. The note with it: Homo sapiens, SH-SY5Y, 2 h, read-out: FC. This is another data set of the same source.
The target of data set [6] is cGMP-specific 3',5'-cyclic phosphodiesterase (Homo sapiens, UniProt O76074). The data set is described as follows: Inhibition of full length human recombinant N-terminal GST-tagged PDE5A1 expressed in baculovirus infected sf9 cells using cGMP as substrate after 30 mins by fluorescence assay.
Data set [7] deals with CYP2C19 (Homo sapiens, UniProt P33261). The data set is described as follows: Inhibition of CYP2C19 in human liver microsomes at 10 uM after 10 mins in presence of NADPH by LC-MS/MS analysis relative to control. The data set is classed as ADME.
Data set [8] can be described thus: Cytotoxicity against Tg2576 mouse primary neurons after 72 hrs by ATP luminescence assay. Format: cell-based, Neuron. The note with it: read-out: LC50.
For data set [9], the target named is Histone deacetylase 9 (Homo sapiens, UniProt Q9UKV0). The data set is described as follows: Inhibition of human HDAC9.
The target in data set [10] is CYP3A4 (Homo sapiens, UniProt P08684). The data set is described as follows: Inhibition of CYP3A4 in human liver microsomes at 10 uM after 10 mins in presence of NADPH by LC-MS/MS analysis relative to control. Format: ADME.
The target in data set [11] is T2, Protein deacetylase HDAC6 (Homo sapiens, UniProt Q9UBN7).
T2 sequence (Q9UBN7 whole entry): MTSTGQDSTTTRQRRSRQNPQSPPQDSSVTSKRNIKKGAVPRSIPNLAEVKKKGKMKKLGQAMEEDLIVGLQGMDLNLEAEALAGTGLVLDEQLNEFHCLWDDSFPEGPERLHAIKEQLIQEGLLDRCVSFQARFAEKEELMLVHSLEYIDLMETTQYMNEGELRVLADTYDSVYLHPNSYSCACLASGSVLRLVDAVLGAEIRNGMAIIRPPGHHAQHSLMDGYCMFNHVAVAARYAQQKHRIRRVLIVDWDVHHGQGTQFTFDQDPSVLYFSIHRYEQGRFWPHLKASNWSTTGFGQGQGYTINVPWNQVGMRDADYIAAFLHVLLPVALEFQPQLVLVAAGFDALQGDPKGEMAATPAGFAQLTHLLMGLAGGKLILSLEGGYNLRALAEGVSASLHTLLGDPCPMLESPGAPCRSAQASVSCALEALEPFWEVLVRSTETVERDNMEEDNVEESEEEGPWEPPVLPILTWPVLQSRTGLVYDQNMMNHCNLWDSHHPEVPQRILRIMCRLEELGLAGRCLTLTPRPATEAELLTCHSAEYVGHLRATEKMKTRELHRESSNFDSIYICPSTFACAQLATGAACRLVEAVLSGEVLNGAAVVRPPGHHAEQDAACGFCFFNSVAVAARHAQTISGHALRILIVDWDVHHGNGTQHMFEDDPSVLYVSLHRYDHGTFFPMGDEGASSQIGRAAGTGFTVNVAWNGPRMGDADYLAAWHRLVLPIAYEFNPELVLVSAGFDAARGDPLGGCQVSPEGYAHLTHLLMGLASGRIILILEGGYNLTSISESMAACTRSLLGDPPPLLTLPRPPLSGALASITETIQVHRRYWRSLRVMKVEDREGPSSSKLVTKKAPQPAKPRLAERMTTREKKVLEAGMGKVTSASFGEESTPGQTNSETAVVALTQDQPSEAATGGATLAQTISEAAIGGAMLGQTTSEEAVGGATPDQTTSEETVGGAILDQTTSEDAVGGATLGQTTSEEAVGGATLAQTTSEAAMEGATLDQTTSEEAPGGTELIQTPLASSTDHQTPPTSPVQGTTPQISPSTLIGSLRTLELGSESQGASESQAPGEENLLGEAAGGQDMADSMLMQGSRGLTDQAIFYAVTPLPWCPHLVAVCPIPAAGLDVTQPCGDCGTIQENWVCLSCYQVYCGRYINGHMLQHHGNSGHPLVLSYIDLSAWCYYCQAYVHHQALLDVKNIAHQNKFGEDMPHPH
The data set is described as follows: Inhibition of full length human recombinant N-terminal GST-tagged HDAC6 expressed in baculovirus infected sf9 cells using fluorogenic HDAC substrate 3 after 30 mins by fluorescence assay.

Data set [12] can be described thus: Half life in human liver microsomes at 1 uM preincubated for 10 mins followed by NADPH addition measured up to 60 mins by LC-MS/MS analysis. The data set is classed as ADME, microsome.
The target of data set [13] is Cone cGMP-specific 3',5'-cyclic phosphodiesterase subunit alpha' (Homo sapiens, UniProt P51160). The data set is described as follows: Inhibition of PDE6C (unknown origin) using FAM-cGMP as substrate by fluorescence assay.
Data set [14] concerns the target Protein deacetylase HDAC6 (Mus musculus) (UniProt Q9Z2V5). The data set is described as follows: Inhibition of HDAC6 in Tg2576 mouse primary neurons assessed as reduction in phosphorylated tau protein level at 100 nM treated for 2 days measured at 24 hrs post last dose by Western blot analysis relative to control. (In western blotting, separated proteins are transferred to a membrane and probed.)

Data set [15] can be described thus: Half life in mouse liver microsomes at 1 uM preincubated for 10 mins followed by NADPH addition measured up to 60 mins by LC-MS/MS analysis. Format: ADME, microsome.
Data set [16] concerns the target T1, Histone deacetylase 1. The data set is described as follows: Inhibition of full length human recombinant C-terminal FLAG/His-tagged HDAC1 expressed in baculovirus infected sf9 cells using fluorogenic HDAC substrate 3 after 4 hrs fluorescence assay.
Data set [17] is described as follows: Selectivity ratio of compound effect for inhibition of HDAC6 in human SH-SY5Y cells assessed as induction of tubulin K-40 acetylation level to compound effect for inhibition of class-1 HDAC in human SH-SY5Y cells assessed as induction of AcH3K9 level. Format: functional.
Data set [18] addresses Histone deacetylase 5 (Homo sapiens, UniProt Q9UQL6). The data set is described as follows: Inhibition of human HDAC5.
For data set [19], the target named is Histone deacetylase 8 (Homo sapiens, UniProt Q9BY41). The data set is described as follows: Inhibition of human HDAC8.
Data set [20] can be described thus: Inhibition of class-1 HDAC in human SH-SY5Y cells assessed as induction of AcH3K9 level at 160 nM after 2 hrs by AlphaLISA assay. The following applies: 0.16 µM. The data set is classed as cell-based.
The subject of data set [21] is Mus musculus. The data set is described as follows: Cognitive enhancing effect in Tg2576 mouse model of Alzheimer's disease assessed as long term associative memory improvement by measuring freezing after electric shock at 40 mg/kg, ip for 2 weeks measured at 24 hrs post electric shock (reference value: 54%). Format: functional.
In data set [22] the target is Protein deacetylase HDAC6 (Mus musculus) (UniProt Q9Z2V5). The data set is described as follows: Inhibition of HDAC6 in Tg2576 mouse primary neurons assessed as reduction in human APP protein level at 100 nM treated for 2 days measured at 24 hrs post last dose by Western blot analysis relative to control.
Sequence of Protein deacetylase HDAC6 (Mus musculus) (Q9Z2V5 whole entry): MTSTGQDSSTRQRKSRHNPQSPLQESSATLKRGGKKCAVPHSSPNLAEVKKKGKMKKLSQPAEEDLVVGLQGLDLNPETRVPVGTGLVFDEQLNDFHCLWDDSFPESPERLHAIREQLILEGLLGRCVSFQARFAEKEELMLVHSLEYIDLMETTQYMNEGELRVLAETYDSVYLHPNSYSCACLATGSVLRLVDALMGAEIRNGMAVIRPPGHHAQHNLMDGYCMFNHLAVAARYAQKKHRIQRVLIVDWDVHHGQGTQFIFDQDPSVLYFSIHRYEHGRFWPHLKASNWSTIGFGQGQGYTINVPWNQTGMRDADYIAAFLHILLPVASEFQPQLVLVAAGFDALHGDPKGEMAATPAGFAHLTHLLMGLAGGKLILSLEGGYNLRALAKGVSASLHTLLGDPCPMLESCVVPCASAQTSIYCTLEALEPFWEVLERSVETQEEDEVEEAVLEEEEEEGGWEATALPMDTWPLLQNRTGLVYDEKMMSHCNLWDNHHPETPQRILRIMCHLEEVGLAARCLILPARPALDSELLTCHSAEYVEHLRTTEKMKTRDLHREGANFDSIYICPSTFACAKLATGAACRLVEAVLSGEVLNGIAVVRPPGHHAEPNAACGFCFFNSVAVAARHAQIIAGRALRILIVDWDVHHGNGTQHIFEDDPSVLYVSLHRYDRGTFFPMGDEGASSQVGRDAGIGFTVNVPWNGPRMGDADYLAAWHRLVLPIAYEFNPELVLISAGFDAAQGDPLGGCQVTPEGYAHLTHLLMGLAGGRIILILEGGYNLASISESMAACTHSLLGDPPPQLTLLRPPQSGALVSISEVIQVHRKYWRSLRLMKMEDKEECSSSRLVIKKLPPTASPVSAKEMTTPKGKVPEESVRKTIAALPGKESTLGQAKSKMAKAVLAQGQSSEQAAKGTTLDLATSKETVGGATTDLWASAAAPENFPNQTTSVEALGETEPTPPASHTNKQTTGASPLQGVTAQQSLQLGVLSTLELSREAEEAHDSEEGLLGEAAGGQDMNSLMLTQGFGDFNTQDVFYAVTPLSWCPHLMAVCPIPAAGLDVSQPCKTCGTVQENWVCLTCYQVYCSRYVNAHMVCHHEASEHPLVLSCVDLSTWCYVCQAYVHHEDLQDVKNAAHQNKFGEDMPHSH

T1 sequence (Q13547 whole entry): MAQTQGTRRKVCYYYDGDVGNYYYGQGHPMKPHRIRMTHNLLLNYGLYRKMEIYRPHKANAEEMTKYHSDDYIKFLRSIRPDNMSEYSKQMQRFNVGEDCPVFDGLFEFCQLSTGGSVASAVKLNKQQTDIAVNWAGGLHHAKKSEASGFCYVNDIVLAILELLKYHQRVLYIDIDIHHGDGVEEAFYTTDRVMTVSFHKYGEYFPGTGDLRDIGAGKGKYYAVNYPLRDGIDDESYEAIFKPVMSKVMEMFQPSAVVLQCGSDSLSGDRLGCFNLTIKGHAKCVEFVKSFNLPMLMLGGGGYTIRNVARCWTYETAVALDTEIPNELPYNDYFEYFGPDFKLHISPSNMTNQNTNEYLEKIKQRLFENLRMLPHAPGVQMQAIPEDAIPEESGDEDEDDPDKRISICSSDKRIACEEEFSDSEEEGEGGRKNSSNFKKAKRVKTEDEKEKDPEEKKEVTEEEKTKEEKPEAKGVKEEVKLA
Sequence of CYP3A4 (P08684 whole entry): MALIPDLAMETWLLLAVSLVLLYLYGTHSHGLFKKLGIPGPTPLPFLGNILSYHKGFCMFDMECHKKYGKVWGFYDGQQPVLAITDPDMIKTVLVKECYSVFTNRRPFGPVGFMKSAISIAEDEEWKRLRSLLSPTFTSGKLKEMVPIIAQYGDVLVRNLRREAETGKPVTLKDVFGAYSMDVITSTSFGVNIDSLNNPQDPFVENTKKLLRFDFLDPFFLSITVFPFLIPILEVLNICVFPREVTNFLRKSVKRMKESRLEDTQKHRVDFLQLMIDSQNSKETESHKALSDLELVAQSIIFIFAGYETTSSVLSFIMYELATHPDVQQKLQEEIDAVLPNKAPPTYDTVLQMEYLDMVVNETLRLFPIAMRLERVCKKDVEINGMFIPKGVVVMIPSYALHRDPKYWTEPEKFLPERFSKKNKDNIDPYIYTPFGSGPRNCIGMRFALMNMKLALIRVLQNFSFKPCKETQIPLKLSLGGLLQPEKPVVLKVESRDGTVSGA
Sequence of Cone cGMP-specific 3',5'-cyclic phosphodiesterase subunit alpha' (P51160 whole entry): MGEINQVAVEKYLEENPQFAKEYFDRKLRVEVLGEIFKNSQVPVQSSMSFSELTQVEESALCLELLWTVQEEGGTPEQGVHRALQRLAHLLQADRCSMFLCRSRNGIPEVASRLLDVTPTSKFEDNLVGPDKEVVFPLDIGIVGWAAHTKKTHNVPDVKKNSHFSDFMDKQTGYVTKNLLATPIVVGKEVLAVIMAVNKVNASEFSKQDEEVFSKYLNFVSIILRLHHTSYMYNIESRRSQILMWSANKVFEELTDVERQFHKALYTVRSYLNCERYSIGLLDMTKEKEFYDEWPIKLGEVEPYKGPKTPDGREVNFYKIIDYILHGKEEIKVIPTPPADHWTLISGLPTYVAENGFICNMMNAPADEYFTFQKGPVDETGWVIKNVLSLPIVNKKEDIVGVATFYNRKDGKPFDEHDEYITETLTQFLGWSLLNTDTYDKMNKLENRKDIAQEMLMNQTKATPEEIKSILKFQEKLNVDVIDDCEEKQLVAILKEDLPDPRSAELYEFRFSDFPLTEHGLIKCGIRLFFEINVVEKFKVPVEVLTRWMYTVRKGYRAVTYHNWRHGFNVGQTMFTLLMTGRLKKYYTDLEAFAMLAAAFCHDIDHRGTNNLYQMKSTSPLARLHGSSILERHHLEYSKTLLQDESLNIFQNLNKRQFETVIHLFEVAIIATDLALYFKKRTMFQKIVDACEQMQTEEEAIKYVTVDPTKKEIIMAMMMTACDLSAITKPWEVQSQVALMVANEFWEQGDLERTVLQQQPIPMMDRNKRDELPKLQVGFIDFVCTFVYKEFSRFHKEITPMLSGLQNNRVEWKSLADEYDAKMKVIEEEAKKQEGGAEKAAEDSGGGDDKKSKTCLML
Sequence of Histone deacetylase 9 (Q9UKV0 whole entry): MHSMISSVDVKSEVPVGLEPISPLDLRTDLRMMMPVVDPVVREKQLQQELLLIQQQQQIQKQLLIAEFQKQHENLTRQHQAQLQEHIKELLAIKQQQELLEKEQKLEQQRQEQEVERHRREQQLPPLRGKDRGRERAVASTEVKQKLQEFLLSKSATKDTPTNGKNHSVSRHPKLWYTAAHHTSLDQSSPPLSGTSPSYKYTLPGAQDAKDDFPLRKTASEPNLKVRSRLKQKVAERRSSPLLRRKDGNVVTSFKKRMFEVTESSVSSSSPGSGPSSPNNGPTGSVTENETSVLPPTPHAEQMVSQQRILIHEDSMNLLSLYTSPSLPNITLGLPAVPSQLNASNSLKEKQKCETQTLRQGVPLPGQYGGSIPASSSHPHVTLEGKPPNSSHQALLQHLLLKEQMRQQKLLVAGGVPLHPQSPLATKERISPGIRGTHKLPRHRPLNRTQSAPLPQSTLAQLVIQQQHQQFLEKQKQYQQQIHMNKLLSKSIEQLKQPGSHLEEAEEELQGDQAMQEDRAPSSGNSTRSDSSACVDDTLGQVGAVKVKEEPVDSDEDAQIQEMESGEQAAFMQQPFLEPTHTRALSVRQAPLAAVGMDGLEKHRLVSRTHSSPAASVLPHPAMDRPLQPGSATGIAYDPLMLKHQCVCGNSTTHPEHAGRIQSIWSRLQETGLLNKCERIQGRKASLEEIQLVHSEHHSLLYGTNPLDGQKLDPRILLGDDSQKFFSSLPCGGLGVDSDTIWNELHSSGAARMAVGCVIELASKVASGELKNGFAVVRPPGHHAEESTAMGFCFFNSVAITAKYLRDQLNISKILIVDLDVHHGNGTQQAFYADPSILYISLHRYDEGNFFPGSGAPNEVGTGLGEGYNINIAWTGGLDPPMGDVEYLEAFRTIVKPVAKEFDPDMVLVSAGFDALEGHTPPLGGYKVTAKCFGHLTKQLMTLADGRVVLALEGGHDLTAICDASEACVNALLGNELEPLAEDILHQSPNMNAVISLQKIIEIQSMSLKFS
Sequence of Histone deacetylase 8 (Q9BY41 whole entry): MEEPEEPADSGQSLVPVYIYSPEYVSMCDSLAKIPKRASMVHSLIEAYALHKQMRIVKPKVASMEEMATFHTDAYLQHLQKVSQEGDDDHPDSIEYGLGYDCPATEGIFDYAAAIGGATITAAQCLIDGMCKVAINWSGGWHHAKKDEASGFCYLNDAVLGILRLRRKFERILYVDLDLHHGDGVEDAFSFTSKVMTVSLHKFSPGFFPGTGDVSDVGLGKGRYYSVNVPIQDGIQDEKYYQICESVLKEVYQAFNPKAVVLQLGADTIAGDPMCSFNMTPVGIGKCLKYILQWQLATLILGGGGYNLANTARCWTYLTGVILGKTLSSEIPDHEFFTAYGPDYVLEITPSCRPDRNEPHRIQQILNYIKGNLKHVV
Sequence of CYP2C19 (P33261 whole entry): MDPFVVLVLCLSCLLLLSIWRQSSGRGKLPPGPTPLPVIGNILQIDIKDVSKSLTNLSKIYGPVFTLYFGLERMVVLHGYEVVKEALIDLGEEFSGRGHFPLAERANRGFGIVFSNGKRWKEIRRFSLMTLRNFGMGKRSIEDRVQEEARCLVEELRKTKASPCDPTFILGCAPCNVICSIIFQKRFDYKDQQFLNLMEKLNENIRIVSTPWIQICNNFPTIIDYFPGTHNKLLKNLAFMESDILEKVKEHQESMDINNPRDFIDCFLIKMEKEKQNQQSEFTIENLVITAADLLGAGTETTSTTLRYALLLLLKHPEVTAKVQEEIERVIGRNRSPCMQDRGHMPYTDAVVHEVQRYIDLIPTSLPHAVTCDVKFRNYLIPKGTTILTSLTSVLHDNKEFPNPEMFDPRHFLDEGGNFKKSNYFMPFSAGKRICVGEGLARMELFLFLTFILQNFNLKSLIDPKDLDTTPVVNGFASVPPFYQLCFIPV

For the molecule `CCCc1nn(C)c2c(=O)[nH]c(-c3cc(Cc4ccc(C(=O)NO)s4)ccc3OCC)nc12`, the Papp at 18 h, 50 µM in [1] is 2.91 ×10⁻⁶ cm/s. In addition, the inhibition (commonly the share of the control response that was lost under treatment) at 10 min, 10 µM was less than 50% in data set [2], less than 50% in data set [7] and 23.4% in [10]. Also, the residence time in data set [3] is 15.5 min. The fold induction at 0.1 µM in data set [4] was determined as 1.8. For the same molecule, the fold induction at 0.5 µM in data set [5] turned out to be 8.2. Besides, the pIC50 (usually −log10 of the IC50, conventionally taken in molar units) in data set [6] is 7.96; in data set [9], less than 5.00; in [11] it was 7.82; in data set [13], 8.85; in data set [16], 6.08; in data set [18], less than 5.00. In [19], this molecule gave a pIC50 of less than 5.00. Also, the CC50 at 72 h in data set [8] turned out to be 46300 nM. In addition, the half-life (as a rule, the time in which the quantity being followed falls by half) at 1 µM in data set [12] is 32.7 min; in data set [15], 5.2 min. Besides, the inhibition in data set [14] turned out to be 30%; in data set [22], 55%. The Selectivity ratio in data set [17] was greater than 5. Also, the “inhibition (INH)” value in data set [20] is on record as “Active”. Moreover, in data set [21], the Activity is 68%.
